Assay results: patent US10526327B2, “Histone demethylase inhibitors” (CELGENE QUANTICEL RESEARCH, INC., priority 2013, dated 2020)

Tested on: KDM5A/B
Experiment: In vitro cell-based assay: immuno-blot quantification of tri-methyl H3K4 in ZR-75-1 breast cancer cells
Settings: 72 hours, tri-methyl H3K4 level relative to GAPDH, percent of DMSO, read-out: Cellular IC50
Procedure, shortened: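 ZR-75-1 breast cancer cells treated 72 h with 11-point compound dilutions (1250 μM to 10 nM). H3K4me3 quantified by infrared immunoblot densitometry, normalized to GAPDH and expressed as percent of DMSO control; relative IC50 from curve fit.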

Compound	IC50
CC(=O)N1CC[C@@H](n2cc(Oc3nc(O)c4ccncc4n3)cn2)C1 [Example 129, 1-[(3R)-3-[4-({4-hydroxypyrido[3,4-d]pyrimidin-2-yl}oxy)-1H-pyrazol-1-yl]pyrrolidin-1-yl]ethan-1-one]	> 10000 nM
N#CCC(=O)N1CC[C@@H](n2cc(Oc3nc(O)c4ccncc4n3)cn2)C1 [Example 130, 3-[(3R)-3-[4-({4-hydroxypyrido[3,4-d]pyrimidin-2-yl}oxy)-1H-pyrazol-1-yl]pyrrolidin-1-yl]-3-oxopropanenitrile]	> 10000 nM
O=C(C1CC1)N1CC[C@@H](n2cc(Oc3nc(O)c4ccncc4n3)cn2)C1 [Example 131, 2-({1-[(3R)-1-cyclopropanecarbonylpyrrolidin-3-yl]-1H-pyrazol-4-yl}oxy)pyrido[3,4-d]pyrimidin-4-ol]	1000 to 10000 nM
O=C(c1ccccc1)N1CC[C@@H](n2cc(Oc3nc(O)c4ccncc4n3)cn2)C1 [Example 132, 2-({1-[(3R)-1-benzoylpyrrolidin-3-yl]-1H-pyrazol-4-yl}oxy)pyrido[3,4-d]pyrimidin-4-ol]	1000 to 10000 nM
Oc1nc(Oc2cnn([C@@H]3CCN(Cc4ccccc4)C3)c2)nc2cnccc12 [Example 133, 2-({1-[(3R)-1-benzylpyrrolidin-3-yl]-1H-pyrazol-4-yl}oxy)pyrido[3,4-d]pyrimidin-4-ol]	1000 to 10000 nM
Oc1nc(Oc2cnn([C@@H]3CCN(c4ccc(F)cc4)C3)c2)nc2cnccc12 [Example 134, 2-({1-[(3R)-1-(4-fluorophenyl)pyrrolidin-3-yl]-1H-pyrazol-4-yl}oxy)pyrido[3,4-d]pyrimidin-4-ol]	100 to 1000 nM
Oc1nc(Oc2cnn([C@H]3CCNC3)c2)nc2cnccc12 [Example 135, 2-({1-[(3S)-pyrrolidin-3-yl]-1H-pyrazol-4-yl}oxy)pyrido[3,4-d]pyrimidin-4-ol]	> 10000 nM
CCS(=O)(=O)N1CC[C@H](n2cc(Oc3nc(O)c4ccncc4n3)cn2)C1 [Example 136, 2-({1-[(3S)-1-(ethanesulfonyl)pyrrolidin-3-yl]-1H-pyrazol-4-yl}oxy)pyrido[3,4-d]pyrimidin-4-ol]	100 to 1000 nM
O=S(=O)(C1CC1)N1CC[C@H](n2cc(Oc3nc(O)c4ccncc4n3)cn2)C1 [Example 137, 2-({1-[(3S)-1-(cyclopropanesulfonyl)pyrrolidin-3-yl]-1H-pyrazol-4-yl}oxy)pyrido[3,4-d]pyrimidin-4-ol]	100 to 1000 nM
O=S(=O)(c1ccccc1)N1CC[C@H](n2cc(Oc3nc(O)c4ccncc4n3)cn2)C1 [Example 138, 2-({1-[(3S)-1-(benzenesulfonyl)pyrrolidin-3-yl]-1H-pyrazol-4-yl}oxy)pyrido[3,4-d]pyrimidin-4-ol]	1000 to 10000 nM
CC(=O)N1CC[C@H](n2cc(Oc3nc(O)c4ccncc4n3)cn2)C1 [Example 139, 1-[(3S)-3-[4-({4-hydroxypyrido[3,4-d]pyrimidin-2-yl}oxy)-1H-pyrazol-1-yl]pyrrolidin-1-yl]ethan-1-one]	> 10000 nM
N#CCC(=O)N1CC[C@H](n2cc(Oc3nc(O)c4ccncc4n3)cn2)C1 [Example 140, 3-[(3S)-3-[4-({4-hydroxypyrido[3,4-d]pyrimidin-2-yl}oxy)-1H-pyrazol-1-yl]pyrrolidin-1-yl]-3-oxopropanenitrile]	> 10000 nM
O=C(C1CC1)N1CC[C@H](n2cc(Oc3nc(O)c4ccncc4n3)cn2)C1 [Example 141, 2-({1-[(3S)-1-cyclopropanecarbonylpyrrolidin-3-yl]-1H-pyrazol-4-yl}oxy)pyrido[3,4-d]pyrimidin-4-ol]	> 10000 nM
O=C(c1ccccc1)N1CC[C@H](n2cc(Oc3nc(O)c4ccncc4n3)cn2)C1 [Example 142, 2-({1-[(3S)-1-benzoylpyrrolidin-3-yl]-1H-pyrazol-4-yl}oxy)pyrido[3,4-d]pyrimidin-4-ol]	> 10000 nM
Oc1nc(Oc2cnn([C@H]3CCN(c4ccccc4)C3)c2)nc2cnccc12 [Example 145, 2-({1-[(3S)-1-phenylpyrrolidin-3-yl]-1H-pyrazol-4-yl}oxy)pyrido[3,4-d]pyrimidin-4-ol]	1000 to 10000 nM
Oc1nc(Oc2cnn([C@H]3CCN(c4ccc(F)cc4)C3)c2)nc2cnccc12 [Example 146, 2-({1-[(3S)-1-(4-fluorophenyl)pyrrolidin-3-yl]-1H-pyrazol-4-yl}oxy)pyrido[3,4-d]pyrimidin-4-ol]	1000 to 10000 nM
Oc1nc(Oc2cnn([C@H]3CCN(c4ccccc4F)C3)c2)nc2cnccc12 [Example 147, 2-({1-[(3S)-1-(2-fluorophenyl)pyrrolidin-3-yl]-1H-pyrazol-4-yl}oxy)pyrido[3,4-d]pyrimidin-4-ol]	1000 to 10000 nM
Oc1nc(Oc2cnn([C@H]3CCN(c4ccc(Cl)cc4)C3)c2)nc2cnccc12 [Example 148, 2-({1-[(3S)-1-(4-chlorophenyl)pyrrolidin-3-yl]-1H-pyrazol-4-yl}oxy)pyrido[3,4-d]pyrimidin-4-ol]	1000 to 10000 nM

Other lines, results leading:

IC50	Compound
100 to 1000 nM	CCS(=O)(=O)N1CCC[C@@H](n2cc(Oc3nc(O)c4ccncc4n3)cn2)C1 [Example 150, 2-({1-[(3R)-1-(ethanesulfonyl)piperidin-3-yl]-1H-pyrazol-4-yl}oxy)pyrido[3,4-d]pyrimidin-4-ol]
1000 to 10000 nM	CC(=O)N1CCC[C@@H](n2cc(Oc3nc(O)c4ccncc4n3)cn2)C1 [Example 153, 1-[(3R)-3-[4-({4-hydroxypyrido[3,4-d]pyrimidin-2-yl}oxy)-1H-pyrazol-1-yl]piperidin-1-yl]ethan-1-one]
> 10000 nM	N#CCC(=O)N1CCC[C@@H](n2cc(Oc3nc(O)c4ccncc4n3)cn2)C1 [Example 154, 3-[(3R)-3-[4-({4-hydroxypyrido[3,4-d]pyrimidin-2-yl}oxy)-1H-pyrazol-1-yl]piperidin-1-yl]-3-oxopropanenitrile]
1000 to 10000 nM	O=C(CO)N1CC[C@H](n2cc(Oc3nc(O)c4ccncc4n3)cn2)C1 [Example 155, 2-hydroxy-1-[(3S)-3-[4-({4-hydroxypyrido[3,4-d]pyrimidin-2-yl}oxy)-1H-pyrazol-1-yl]pyrrolidin-1-yl]ethan-1-one]
> 10000 nM	O=C(C1CC1)N1CCC[C@@H](n2cc(Oc3nc(O)c4ccncc4n3)cn2)C1 [Example 156, 2-({1-[(3R)-1-cyclopropanecarbonylpiperidin-3-yl]-1H-pyrazol-4-yl}oxy)pyrido[3,4-d]pyrimidin-4-ol]
1000 to 10000 nM	O=C(c1ccccc1)N1CCC[C@@H](n2cc(Oc3nc(O)c4ccncc4n3)cn2)C1 [Example 157, 2-({1-[(3R)-1-benzoylpiperidin-3-yl]-1H-pyrazol-4-yl}oxy)pyrido[3,4-d]pyrimidin-4-ol]
100 to 1000 nM	Oc1nc(Oc2cnn([C@@H]3CCCN(Cc4ccccc4)C3)c2)nc2cnccc12 [Example 158, 2-({1-[(3R)-1-benzylpiperidin-3-yl]-1H-pyrazol-4-yl}oxy)pyrido[3,4-d]pyrimidin-4-ol]
1000 to 10000 nM	Oc1nc(Oc2cnn([C@@H]3CCCN(c4ccc(F)cc4)C3)c2)nc2cnccc12 [Example 159, 2-({1-[(3R)-1-(4-fluorophenyl)piperidin-3-yl]-1H-pyrazol-4-yl}oxy)pyrido[3,4-d]pyrimidin-4-ol]
100 to 1000 nM	CCS(=O)(=O)N1CCC[C@H](n2cc(Oc3nc(O)c4ccncc4n3)cn2)C1 [Example 161, 2-({1-[(3S)-1-(ethanesulfonyl)piperidin-3-yl]-1H-pyrazol-4-yl}oxy)pyrido[3,4-d]pyrimidin-4-ol]
100 to 1000 nM	O=S(=O)(C1CC1)N1CCC[C@H](n2cc(Oc3nc(O)c4ccncc4n3)cn2)C1 [Example 162, 2-({1-[(3S)-1-(cyclopropanesulfonyl)piperidin-3-yl]-1H-pyrazol-4-yl}oxy)pyrido[3,4-d]pyrimidin-4-ol]
100 to 1000 nM	O=S(=O)(c1ccccc1)N1CCC[C@H](n2cc(Oc3nc(O)c4ccncc4n3)cn2)C1 [Example 163, 2-({1-[(3S)-1-(benzenesulfonyl)piperidin-3-yl]-1H-pyrazol-4-yl}oxy)pyrido[3,4-d]pyrimidin-4-ol]
1000 to 10000 nM	CC(=O)N1CCC[C@H](n2cc(Oc3nc(O)c4ccncc4n3)cn2)C1 [Example 164, 1-[(3S)-3-[4-({4-hydroxypyrido[3,4-d]pyrimidin-2-yl}oxy)-1H-pyrazol-1-yl]piperidin-1-yl]ethan-1-one]
1000 to 10000 nM	O=C(C1CC1)N1CCC[C@H](n2cc(Oc3nc(O)c4ccncc4n3)cn2)C1 [Example 165, 2-({1-[(3S)-1-cyclopropanecarbonylpiperidin-3-yl]-1H-pyrazol-4-yl}oxy)pyrido[3,4-d]pyrimidin-4-ol]
> 10000 nM	N#CCC(=O)N1CCC[C@H](n2cc(Oc3nc(O)c4ccncc4n3)cn2)C1 [Example 166, 3-[(3S)-3-[4-({4-hydroxypyrido[3,4-d]pyrimidin-2-yl}oxy)-1H-pyrazol-1-yl]piperidin-1-yl]-3-oxopropanenitrile]
1000 to 10000 nM	O=C(c1ccccc1)N1CCC[C@H](n2cc(Oc3nc(O)c4ccncc4n3)cn2)C1 [Example 167, 2-({1-[(3S)-1-benzoylpiperidin-3-yl]-1H-pyrazol-4-yl}oxy)pyrido[3,4-d]pyrimidin-4-ol]
1000 to 10000 nM	Oc1nc(Oc2cnn([C@H]3CCCN(Cc4ccccc4)C3)c2)nc2cnccc12 [Example 168, 2-({1-[(3S)-1-benzylpiperidin-3-yl]-1H-pyrazol-4-yl}oxy)pyrido[3,4-d]pyrimidin-4-ol]
